Assay results taken from ChEMBL document CHEMBL1201862, “PubChem BioAssay data set” (2004).
Calls of active or inactive are those of the source.

How the values were obtained:
[1] = biological target: T1, Estrogen receptor (Homo sapiens, UniProt P03372);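 note: potency for inhibiting coactivator peptide recruitment to the receptor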
T1 sequence (P03372 whole entry): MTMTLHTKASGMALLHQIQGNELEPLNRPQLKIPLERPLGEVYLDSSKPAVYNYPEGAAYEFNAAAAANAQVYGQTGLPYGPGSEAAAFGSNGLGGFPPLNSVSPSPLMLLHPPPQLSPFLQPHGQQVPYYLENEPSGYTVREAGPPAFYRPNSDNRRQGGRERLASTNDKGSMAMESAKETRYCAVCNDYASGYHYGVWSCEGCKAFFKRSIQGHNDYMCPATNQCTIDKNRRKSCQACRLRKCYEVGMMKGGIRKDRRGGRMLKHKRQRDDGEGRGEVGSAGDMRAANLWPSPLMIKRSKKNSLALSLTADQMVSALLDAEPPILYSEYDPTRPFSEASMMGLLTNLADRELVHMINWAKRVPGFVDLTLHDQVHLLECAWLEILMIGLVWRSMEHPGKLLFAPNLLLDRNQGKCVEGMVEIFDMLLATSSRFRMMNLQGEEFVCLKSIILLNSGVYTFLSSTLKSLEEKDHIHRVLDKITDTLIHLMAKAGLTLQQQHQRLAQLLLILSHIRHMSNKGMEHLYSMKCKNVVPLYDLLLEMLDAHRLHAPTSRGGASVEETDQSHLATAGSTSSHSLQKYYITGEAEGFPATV

[2] = tested on: HEK293; assay: inhibition of NOD1-driven NF-kB reporter – cell-based, luminescence, uHTS, primary screen (AID 1578); type: functional; settings: Homo sapiens
[3] = tested on: HEK293; assay: cells; type: functional, cell-based; settings: Homo sapiens
[4] = tested on: HEK293; assay: cells; type: functional, cell-based; settings: Homo sapiens; remark: listed apart in the source
[5] = biological target: Nucleotide-binding oligomerization domain-containing protein 2 (Homo sapiens, UniProt Q9HC29); assay: inhibition of NOD2-driven NF-kB reporter – cell-based, luminescence, uHTS, HEK293 (AID 1566); type: functional
Chain of Nucleotide-binding oligomerization domain-containing protein 2 (Q9HC29 whole entry, the tested form may be a part): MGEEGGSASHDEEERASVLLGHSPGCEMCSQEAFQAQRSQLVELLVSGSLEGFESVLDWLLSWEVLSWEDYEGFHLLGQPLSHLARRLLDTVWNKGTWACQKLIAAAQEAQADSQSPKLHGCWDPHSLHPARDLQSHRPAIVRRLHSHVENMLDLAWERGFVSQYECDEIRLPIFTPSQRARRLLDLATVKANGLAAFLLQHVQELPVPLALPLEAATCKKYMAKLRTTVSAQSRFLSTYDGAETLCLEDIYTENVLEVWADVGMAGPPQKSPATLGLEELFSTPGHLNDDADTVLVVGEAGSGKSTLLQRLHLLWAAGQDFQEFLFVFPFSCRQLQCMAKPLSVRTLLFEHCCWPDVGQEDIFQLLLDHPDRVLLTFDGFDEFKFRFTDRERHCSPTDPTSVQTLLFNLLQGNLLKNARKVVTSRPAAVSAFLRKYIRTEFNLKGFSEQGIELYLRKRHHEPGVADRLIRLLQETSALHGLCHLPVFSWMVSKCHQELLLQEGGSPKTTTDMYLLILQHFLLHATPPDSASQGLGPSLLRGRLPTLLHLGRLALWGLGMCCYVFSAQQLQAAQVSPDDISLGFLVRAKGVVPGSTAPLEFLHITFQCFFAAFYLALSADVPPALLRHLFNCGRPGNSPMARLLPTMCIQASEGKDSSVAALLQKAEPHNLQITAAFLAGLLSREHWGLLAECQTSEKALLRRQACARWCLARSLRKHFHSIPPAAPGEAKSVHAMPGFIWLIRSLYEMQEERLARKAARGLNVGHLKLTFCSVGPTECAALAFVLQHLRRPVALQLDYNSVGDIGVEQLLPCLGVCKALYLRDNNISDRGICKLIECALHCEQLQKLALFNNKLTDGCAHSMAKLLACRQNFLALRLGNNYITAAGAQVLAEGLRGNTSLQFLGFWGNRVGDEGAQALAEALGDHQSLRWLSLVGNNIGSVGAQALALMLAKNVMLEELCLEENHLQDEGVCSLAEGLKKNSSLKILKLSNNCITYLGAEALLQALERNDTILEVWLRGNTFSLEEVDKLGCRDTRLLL

[6] = tested on: HEK293; assay: NOD2 signaling inhibitors in MDP-stimulated cells, cell-based, uHTS, luminescence (AID 2001); type: functional; settings: Homo sapiens
[7] = tested on: HEK293; assay: cells; type: functional, cell-based; settings: Homo sapiens; remark: listed apart in the source
[8] = biological target: Cytochrome P450 3A4 (Homo sapiens, UniProt P08684); settings: Potency;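 note: confirmatory qHTS run detecting inhibitors and substrates of CYP3A4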
Chain of Cytochrome P450 3A4 (P08684 whole entry): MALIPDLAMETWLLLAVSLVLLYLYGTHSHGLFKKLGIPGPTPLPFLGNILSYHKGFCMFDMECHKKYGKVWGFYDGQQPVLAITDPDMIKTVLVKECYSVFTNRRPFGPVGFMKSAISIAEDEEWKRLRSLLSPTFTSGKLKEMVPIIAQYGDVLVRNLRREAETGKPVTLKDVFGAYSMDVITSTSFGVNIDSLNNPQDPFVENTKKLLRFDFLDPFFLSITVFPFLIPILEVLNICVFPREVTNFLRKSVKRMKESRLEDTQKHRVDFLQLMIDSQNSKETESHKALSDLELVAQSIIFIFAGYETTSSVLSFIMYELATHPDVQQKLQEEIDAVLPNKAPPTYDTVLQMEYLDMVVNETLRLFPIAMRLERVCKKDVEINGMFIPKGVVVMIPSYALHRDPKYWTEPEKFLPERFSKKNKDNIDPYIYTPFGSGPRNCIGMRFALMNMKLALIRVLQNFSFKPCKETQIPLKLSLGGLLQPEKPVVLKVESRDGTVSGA

[9] = biological target: Melanocortin receptor 4 (Homo sapiens, UniProt P32245); assay: inhibitors of MC4R cAMP signaling – cell-based, TR-FRET, biased antagonists, dose response (AID 602298); type: functional;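 note: antagonist potency against agonist-stimulated cAMP production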
Chain of Melanocortin receptor 4 (P32245 whole entry): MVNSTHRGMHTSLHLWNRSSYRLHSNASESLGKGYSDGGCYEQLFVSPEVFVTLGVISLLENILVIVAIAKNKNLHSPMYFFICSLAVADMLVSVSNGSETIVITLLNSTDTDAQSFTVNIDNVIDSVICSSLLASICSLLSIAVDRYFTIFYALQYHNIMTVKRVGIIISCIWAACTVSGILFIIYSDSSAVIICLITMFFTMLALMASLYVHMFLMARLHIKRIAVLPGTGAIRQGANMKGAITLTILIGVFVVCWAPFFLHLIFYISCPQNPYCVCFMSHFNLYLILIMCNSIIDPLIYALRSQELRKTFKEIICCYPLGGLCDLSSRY

[10] = cAMP pathway inhibition in counterscreen cell line – TR-FRET cAMP detection, counter-screen for MC4R biased antagonist project, dose response (AID 602305); type: functional, cell-based;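 note: U2OS cells stimulated with forskolin near its EC80 as the cAMP inducer; potency is for inhibition of forskolin-stimulated cAMP signaling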
[11] = tested on: P388/ADR; assay: cells; type: functional; settings: Mus musculus
[12] = tested on: SN12K1; assay: cells; type: functional; settings: Homo sapiens
[13] = tested on: P388; assay: cells; type: functional; settings: Mus musculus
[14] = Trypanosoma cruzi growth suppression in host cells – NIH3T3 host cells, beta-gal luminescence, confirmation (AID 2044); type: functional, cell-based;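 note: intracellular parasites grown in NIH/3T3 mouse fibroblasts as host cells; luminescent beta-galactosidase reporter signal from transgenic T. cruzi replicating inside host cells; inhibitors lower the luminescence signal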
[15] = NIH3T3 cell viability loss – ATP luminescence, mouse fibroblasts, counter-screen, dose response (AID 2010); type: functional, cell-based;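 note: cells exposed to compound for about 90 hours before reading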
[16] = tested on: INS1; assay: INS-1E survival protection against cytokine death – cell-based, luminescence, retest, dose response (AID 449756); type: functional; settings: Rattus norvegicus, INS1;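 note: cell death triggered by IL-1 beta plus TNF-alpha plus IFN-gamma mixture; protective hits raise ATP signal compared with cytokine alone wells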
[17] = cells
[18] = microbe, parasite or virus in culture; type: functional; settings: Mycobacterium tuberculosis
[19] = biological target: T2, Ubiquitin-conjugating enzyme E2 N (Homo sapiens, UniProt P61088); type: functional;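 note: Dose-response confirmation in a TR-FRET assay detecting UBC13-driven polyubiquitin chain formation, inhibition measured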
T2 sequence (P61088 whole entry): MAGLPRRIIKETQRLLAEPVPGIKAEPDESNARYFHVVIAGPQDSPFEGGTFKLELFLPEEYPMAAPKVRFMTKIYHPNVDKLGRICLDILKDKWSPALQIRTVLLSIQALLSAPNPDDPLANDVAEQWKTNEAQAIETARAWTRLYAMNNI

[20] = tested on: Vero; assay: cells; type: functional; settings: Chlorocebus sabaeus
[21] = biological target: Tumor necrosis factor (Homo sapiens, UniProt P01375); assay: analog potency on TNFa NF-kB signaling – cell-based, revised, SAR follow-up (AID 2337); type: functional
Chain of Tumor necrosis factor (P01375 whole entry): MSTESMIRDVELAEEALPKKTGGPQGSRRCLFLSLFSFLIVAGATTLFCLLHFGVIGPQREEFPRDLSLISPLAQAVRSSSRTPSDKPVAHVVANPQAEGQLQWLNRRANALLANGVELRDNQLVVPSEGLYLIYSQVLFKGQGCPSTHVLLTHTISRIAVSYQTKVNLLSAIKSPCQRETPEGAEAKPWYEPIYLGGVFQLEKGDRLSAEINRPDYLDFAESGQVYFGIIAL

[22] = tested on: HEK293; assay: cells; settings: Homo sapiens
[23] = biological target: T3, Heat shock factor protein 1 (Mus musculus, UniProt P38532); assay: decrease of HSF1-responsive luciferase luminescence – cell-based, NIH3T3, dose retest, confirmation (AID 2382); type: functional;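 note: NIH3T3 fibroblasts with HSF1-driven luciferase reporter stressed by proteasome inhibitor MG132; luminescence from HSF1-driven luciferase expression after 8 hours of MG132 stress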
T3 sequence (P38532 whole entry): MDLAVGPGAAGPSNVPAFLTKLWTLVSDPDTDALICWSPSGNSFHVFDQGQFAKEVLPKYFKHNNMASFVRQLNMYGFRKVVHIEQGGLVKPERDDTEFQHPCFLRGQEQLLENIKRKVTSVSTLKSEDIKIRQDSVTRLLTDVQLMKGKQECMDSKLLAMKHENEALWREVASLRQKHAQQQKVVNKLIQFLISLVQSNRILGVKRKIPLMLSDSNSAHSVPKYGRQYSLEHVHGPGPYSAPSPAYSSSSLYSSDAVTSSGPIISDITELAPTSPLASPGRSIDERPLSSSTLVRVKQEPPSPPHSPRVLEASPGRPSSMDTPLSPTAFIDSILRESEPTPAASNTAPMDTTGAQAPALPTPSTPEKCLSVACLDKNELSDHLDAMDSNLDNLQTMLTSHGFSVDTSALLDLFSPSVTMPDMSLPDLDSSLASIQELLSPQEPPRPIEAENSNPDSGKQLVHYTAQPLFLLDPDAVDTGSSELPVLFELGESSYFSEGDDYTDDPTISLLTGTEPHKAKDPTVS

[24] = biological target: Cytochrome P450 2C9 (Homo sapiens, UniProt P11712)
Chain of Cytochrome P450 2C9 (P11712 whole entry): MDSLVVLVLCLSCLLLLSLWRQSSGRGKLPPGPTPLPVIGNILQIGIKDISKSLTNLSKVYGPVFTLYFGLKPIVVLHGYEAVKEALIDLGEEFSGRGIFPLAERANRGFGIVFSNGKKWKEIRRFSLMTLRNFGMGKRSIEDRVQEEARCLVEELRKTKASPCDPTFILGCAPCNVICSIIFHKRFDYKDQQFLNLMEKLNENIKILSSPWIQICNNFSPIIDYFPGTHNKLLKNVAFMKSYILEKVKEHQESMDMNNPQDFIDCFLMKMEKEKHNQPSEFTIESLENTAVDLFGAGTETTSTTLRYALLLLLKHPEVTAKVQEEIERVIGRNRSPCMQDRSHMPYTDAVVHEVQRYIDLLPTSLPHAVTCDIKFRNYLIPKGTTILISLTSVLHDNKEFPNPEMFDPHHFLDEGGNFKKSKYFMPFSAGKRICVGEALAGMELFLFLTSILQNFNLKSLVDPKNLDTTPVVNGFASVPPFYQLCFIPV

[25] = tested on: HeLa; assay: ATP-based viability loss in HeLa cells – cell-based, CellTiter-Glo luminescence, cherry-pick samples, cytotoxicity control for MITF activator project, dose response (AID 540259); type: functional; settings: Homo sapiens
[26] = tested on: HEK293; assay: EBV LMP1 TES2 canonical NF-kB signalling blockers – cell-based, HEK293, luciferase, cherry-pick, dose response (AID 588343); type: functional; settings: Homo sapiens

## COc1ccc2[nH]c3nc(SCc4nnc(-c5ccc(C)cc5)o4)nnc3c2c1
[1]
  IC50: 6.84 µM (active)

## O=S(=O)(Nc1nc2ccccc2nc1Nc1ccc2c(c1)OCO2)c1ccc(F)cc1
[2]
  EC50: 2.81 µM (active)
[3]
  IC50: 8.92 µM (active)
[4]
  IC50: > 20 µM (inactive)
[5]
  EC50: 11.6 µM (active)
[6]
  IC50: 6.29 µM (active)
[7]
  IC50: > 20 µM (inactive)

## COC(=O)N1[C@H](C)C=C[C@]1(Cc1ccccc1)C(=O)NCc1ccc(C)o1
[8]
  AC50: 7.94 µM (inconclusive)

## COc1ccc(OC)c(NC(=O)CCN2C(=O)c3cccc([N+](=O)[O-])c3C2=O)c1
[9]
  IC50: > 64.6 µM (inactive)
[10]
  IC50: > 64.6 µM (inactive)

## CSc1nc(NC2OCC(O)C(O)C2O)c(N)c(=O)n1C (configuration not stated)
[11]
  GI50: > 100 µM (inactive)
[12]
  GI50: > 100 µM (inactive)
[13]
  GI50: > 100 µM (inactive)

## CCCCCCOc1ccc(CN2CCN(C)CC2)cc1
[14]
  EC50: < 0.1 µM (active)
[15]
  EC50: 4.32 µM (active)
[16]
  AC50: 4.04 µM (active)
[17]
  EC50: 0.076 µM (active)

## COc1ccccc1NC(=O)CSc1nc2sc(C)c(C)c2c(=O)n1C
[2]
  EC50: > 20 µM (inactive)
[3]
  IC50: 12.7 µM (active)
[4]
  IC50: > 20 µM (inactive)
[5]
  EC50: > 20 µM (inactive)
[6]
  IC50: 8.8 µM (active)
[7]
  IC50: > 20 µM (inactive)

## CC/C(=C(\c1ccc(O)cc1)c1ccc(OCCN(C)C)cc1)c1ccccc1 [AFIMOXIFENE]
[18]
  CC50: 16.6 µM (active)
[19]
  IC50: > 20 µM (inactive)
[20]
  CC50: 19.4 µM (active)
[8]
  AC50: 25.1 µM (inconclusive)

## CC(C)(C)c1ccc2c(c1)OP1(Oc3cccc4cccnc34)(O2)Oc2ccc(C(C)(C)C)cc2O1
[11]
  GI50: 1.02 µM (active)
[12]
  GI50: 4.24 µM (inactive)
[13]
  GI50: 0.689 µM (active)

## N#Cc1ccc(N2CCN(S(=O)(=O)c3ccc4c(c3)CCN4C(=O)C3CC3)CC2)cc1
[21]
  IC50: 13.3 µM (active)
[22]
  IC50: > 20 µM (inactive)

## COc1cccc(C(=O)Nc2sc(C(C)C)cc2C(N)=O)c1OC
[23]
  EC50: > 195 µM (not active)
[9]
  IC50: > 64.6 µM (inactive)
[10]
  IC50: > 64.6 µM (inactive)

## CSc1cccc(NC(=O)CN(c2ccccc2)S(=O)(=O)N(C)C)c1
[1]
  IC50: > 50 µM (not active)

## O=C(NCc1cn(-c2ccccc2)nc1-c1ccccc1)c1cc([N+](=O)[O-])cc([N+](=O)[O-])c1
[14]
  EC50: < 0.1 µM (active)
[15]
  EC50: > 60 µM (not active)
[24]
  AC50: 2.82 µM (inconclusive)
[17]
  EC50: 0.139 µM (active)

## Cc1ccc(C(=O)Nc2ncccc2S(=O)(=O)c2ccccc2)cc1
[25]
  AC50: > 350 µM (inactive)

## CCc1ccc(/C=C2\SC(=S)N(CCCC(=O)NC3=NCCS3)C2=O)cc1
[26]
  AC50: 1.85 µM (active)
